In test [1] the test system is Botrytis cinerea. Briefly: Antifungal actiivty against Botryotinia fuckeliana ACCC 30387 assessed as inhibition of radial growth after 3 days. Format: functional. The note with it: ACCC 30387, 72 h.
Test [2] deals with Botrytis cinerea. Briefly: Antifungal actiivty against Botryotinia fuckeliana. Format: functional.

≈ marks a conversion by molar mass, not a printed value.

The term MIC denotes the lowest concentration that inhibits growth of the organism. For `CC1=C(C)C(=O)N(Cc2ccccc2)C1=O`, the MIC with Botrytis cinerea [1] was found to be 5 µg/mL (≈ 23.2 µM).
The same measure, in the same setting: the result for `CC1=C(C)C(=O)N(CCc2ccccc2)C1=O` reads 75 µg/mL (≈ 327 µM); that for `CC1=C(C)C(=O)N(CCCc2ccccc2)C1=O`, 10 µg/mL (≈ 41.1 µM); that for `Cc1ccc2c(c1)C(=O)OC2=O`, over 1000 µg/mL.
With `O=C(O)c1ccc2c(c1)C(=O)OC2=O`, the MIC in the test with Botrytis cinerea [1] was over 1000 µg/mL.
With `O=C1OC(=O)c2c(F)cccc21`, in the test on Botrytis cinerea [1], the MIC came to 500 µg/mL (≈ 3010 µM).
Regarding `O=C1OC(=O)c2c(F)ccc(F)c21`, the MIC in the test with Botrytis cinerea [1] was found to be 150 µg/mL (≈ 815 µM).
On to `O=C1OC(=O)c2c(F)c(F)c(F)c(F)c21`, for which the MIC in the test with Botrytis cinerea [1] amounted to 500 µg/mL (≈ 2270 µM).
The same measure, in the same setting: the result for `O=C1OC(=O)c2cc(Cl)c(Cl)cc21` reads 500 µg/mL (≈ 2300 µM); that for `O=C1OC(=O)c2c1ccc(Cl)c2Cl`, over 1000 µg/mL.
Regarding `O=C1OC(=O)c2c(Cl)ccc(Cl)c21`, the minimal inhibitory concentration (MIC) in the test with Botrytis cinerea [1] was over 1000 µg/mL.
`O=C1C=C(Br)C(=O)O1`: the MIC with Botrytis cinerea [1] is 1000 µg/mL (≈ 5650 µM).
Still for that read-out and setting: next, `O=C1C=C(c2ccccc2)C(=O)O1`: 150 µg/mL (≈ 861 µM).
On the same count and under the same terms, next, `O=C1OC(=O)C(c2ccccc2)=C1c1ccccc1`: 20 µg/mL (≈ 79.9 µM); `O=C1OC(=O)C(Cl)=C1Cl`: 100 µg/mL (≈ 599 µM); `CC1=C(C)C(=O)OC1=O`: 3 µg/mL (≈ 23.8 µM).
On the same count and under the same terms, the result for `CC1=C(CBr)C(=O)OC1=O` reads 10 µg/mL (≈ 48.8 µM); that for `CC1=C(CO)C(=O)OC1=O`, over 1000 µg/mL.
As for `CCOC(=O)C(CC1=C(C)C(=O)OC1=O)C(=O)OCC`, the MIC in the test with Botrytis cinerea [1] came out at 8 µg/mL (≈ 28.1 µM).
Still for that read-out and setting: the result for `CC1=C(CCC(=O)O)C(=O)OC1=O` reads 80 µg/mL (≈ 434 µM); that for `O=C1OC(=O)C(CBr)=C1CBr`, 125 µg/mL (≈ 440 µM).
On to `CCCC1=C(C)C(=O)OC1=O`, for which the MIC in the test on Botrytis cinerea [1] worked out at 25 µg/mL (≈ 162 µM).
The same measure, in the same setting: next, `CCCCCC1=C(C)C(=O)OC1=O`: 5 µg/mL (≈ 27.4 µM); `CCCCCCC1=C(C)C(=O)OC1=O`: 4 µg/mL (≈ 20.4 µM).
The same measure, in the same setting: next, `CCCCCCCCCCC1=C(C)C(=O)OC1=O`: 3 µg/mL (≈ 11.9 µM); `CC(=O)OCC1=C(C)C(=O)OC1=O`: 20 µg/mL (≈ 109 µM); `CC1=C(COC(=O)c2ccccc2)C(=O)OC1=O`: 15 µg/mL (≈ 60.9 µM).
For `CC1=C(CNc2cc(Cl)cc(Cl)c2)C(=O)OC1=O`, in the test on Botrytis cinerea [1], the MIC is 50 µg/mL (≈ 175 µM).
Still for that read-out and setting: next, `CCCCN1C(=O)C(C)=C(C)C1=O`: 5 µg/mL (≈ 27.6 µM).
As for `CC1=C(C)C(=O)N(CC(C)C)C1=O`, the MIC in the test with Botrytis cinerea [1] was 50 µg/mL (≈ 276 µM).
Regarding `CCCCCN1C(=O)C(C)=C(C)C1=O`, the MIC with Botrytis cinerea [1] stood at 5 µg/mL (≈ 25.6 µM).
Same read-out and setting: the result for `CCCCCCN1C(=O)C(C)=C(C)C1=O` reads 5 µg/mL (≈ 23.9 µM).
Still for that read-out and setting: the result for `CCCCCCCCN1C(=O)C(C)=C(C)C1=O` reads 50 µg/mL (≈ 211 µM).
Still for that read-out and setting: the result for `CCCCCCCCCCCCN1C(=O)C(C)=C(C)C1=O` reads 50 µg/mL (≈ 170 µM).
As for `CC1=C(C)C(=O)N(C2CCCCC2)C1=O`, the MIC in the test with Botrytis cinerea [1] was determined as 10 µg/mL (≈ 48.2 µM).
As to `CC1=C(C)C(=O)N(c2ccc(C)cc2)C1=O`, the MIC in the test on Botrytis cinerea [1] was 5 µg/mL (≈ 23.2 µM).
On to `CC1=C(C)C(=O)N(c2ccc(Cl)cc2)C1=O`, for which, in the test on Botrytis cinerea [1], the MIC was 10 µg/mL (≈ 42.4 µM).
As to `CC1=C(C)C(=O)N(c2cc(Cl)cc(Cl)c2)C1=O`, in the test on Botrytis cinerea [1], the MIC amounted to 0.1 µg/mL (≈ 0.37 µM).
On to `CC1=C(C)C(=O)N(c2cccc([N+](=O)[O-])c2C)C1=O`, for which the MIC with Botrytis cinerea [1] turned out to be 10 µg/mL (≈ 38.4 µM).
In the case of `CC1=C(C)C(=O)N(c2nc3ccccc3[nH]2)C1=O`, the MIC in the test on Botrytis cinerea [1] turned out to be 10 µg/mL (≈ 41.5 µM).
The same measure, in the same setting: next, `CC1=C(C)C(=O)N(c2ccc(F)c(F)c2F)C1=O`: 1 µg/mL (≈ 3.92 µM).
`CCCCC1CC2=C(CC(C(O)CCCC)C3=C1C(=O)OC3=O)C(=O)OC2=O` (stereo unspecified) showed an MIC with Botrytis cinerea [2] of 0.78 µg/mL (≈ 2 µM).
With `CC1=C(C)C(=O)N(c2ccccc2)C1=O`, in the test with Botrytis cinerea [1], the MIC stood at 1 µg/mL (≈ 4.97 µM).
Same read-out and setting: the result for `Nc1c(Cl)cc([N+](=O)[O-])cc1Cl` [ALLISAN] reads 0.1 µg/mL (≈ 0.483 µM).
As for `O=C1C=CC(=O)O1` [MALEIC ANHYDRIDE], in the test with Botrytis cinerea [1], the minimum inhibitory concentration (MIC) turned out to be 250 µg/mL (≈ 2550 µM).
On to `O=C1OC(=O)c2ccccc21` [PHTHALIC ANHYDRIDE], for which the MIC in the test with Botrytis cinerea [1] was over 1000 µg/mL.

The record behind these values is ChEMBL document CHEMBL3046375, “Antifungal activity of simple compounds with maleic anhydride or dimethylmaleimide structure against Botrytis cinerea” (J Pestic Sci, 2012).
